Patent publication US7709471B2, “Compounds” (AstraZeneca AB, priority 2006, dated 2010)

How the values were obtained:
[1] = biological target: recombinant Plk1 (Homo sapiens, UniProt P53350); assay: In Vitro Plk1 Enzyme Assay (SPA, GST-Cdc25C phosphorylation); format: biochemical; conditions: ATP 64 nM, 90 minutes, read-out: IC50 (Plk1 enzyme inhibition)
[2] = tested on: human colon tumour cell line HT29; assay: Cellular Assay (phosphohistone H3 Ser10 mitotic marker, HT29); format: cell-based; conditions: HT-29, 24 h, HT29 cells, read-out: IC50 (cellular assay, phosphohistone H3)
Experimental: Chromosome condensation in mitosis is accompanied by phosphorylation of histone H3 on serine 10.
After 24 hours, cells were fixed in 3.7% (v/v) formaldehyde then permeabilised and blocked for 10 minutes in 100 μl 0.5% (v/v) Triton X-100, 1% (w/v) bovine serum albumin (BSA) in phosphate buffered saline (PBS). […] The raw assay data were analysed by non-linear regression analysis and used to determine an IC50 value for each compound.

recombinant Plk1, sequence (P53350 whole entry): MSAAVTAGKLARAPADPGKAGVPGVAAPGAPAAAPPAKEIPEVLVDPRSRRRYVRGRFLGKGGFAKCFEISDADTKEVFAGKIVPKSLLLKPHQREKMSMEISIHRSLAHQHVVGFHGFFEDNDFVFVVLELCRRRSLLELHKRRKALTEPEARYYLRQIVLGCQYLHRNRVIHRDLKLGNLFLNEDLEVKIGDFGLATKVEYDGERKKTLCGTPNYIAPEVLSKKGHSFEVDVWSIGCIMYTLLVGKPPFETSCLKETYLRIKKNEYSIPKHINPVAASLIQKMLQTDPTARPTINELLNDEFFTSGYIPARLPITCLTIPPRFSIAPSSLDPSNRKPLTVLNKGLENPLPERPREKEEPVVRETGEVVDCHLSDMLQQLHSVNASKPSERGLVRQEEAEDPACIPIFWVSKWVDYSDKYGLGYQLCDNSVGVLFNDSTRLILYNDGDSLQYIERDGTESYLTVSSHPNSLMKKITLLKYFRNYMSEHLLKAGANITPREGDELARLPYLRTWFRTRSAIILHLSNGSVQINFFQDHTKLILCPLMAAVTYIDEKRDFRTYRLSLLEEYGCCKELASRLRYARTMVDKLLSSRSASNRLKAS

SMILES: COc1ccc(NC(C)=O)cc1Nc1ncc2c(n1)N(C1CCCC1)CCC(=O)N2C [Example 176, N-[3-[(6-cyclopentyl-2-methyl-3-oxo-2,6,8,10-tetrazabicyclo[5.4.0]undeca-8,10,12-trien-9-yl)amino]-4-methoxy-phenyl]acetamide]
- IC50 [1]: < 300 nM
- IC50 [2]: < 1000 nM

SMILES: CC(=O)Nc1cccc(Nc2ncc3c(n2)N(C2CCCC2)CCC(=O)N3C)c1 [Example 177, N-[3-[(6-cyclopentyl-2-methyl-3-oxo-2,6,8,10-tetrazabicyclo[5.4.0]undeca-8,10,12-trien-9-yl)amino]phenyl]acetamide]
- IC50 [1]: < 100000 nM
- IC50 [2]: < 30000 nM

SMILES: Cc1ccc(CO)cc1Nc1ncc2c(n1)N(C1CCCC1)CCC(=O)N2C [Example 178, 6-cyclopentyl-9-[[5-(hydroxymethyl)-2-methyl-phenyl]amino]-2-methyl-2,6,8,10-tetrazabicyclo[5.4.0]undeca-8,10,12-trien-3-one]
- IC50 [1]: < 1000 nM
- IC50 [2]: < 30000 nM

SMILES: CN1C(=O)CCN(C2CCCC2)c2nc(Nc3cccc(CCO)c3)ncc21 [Example 179, 6-cyclopentyl-9-[[3-(2-hydroxyethyl)phenyl]amino]-2-methyl-2,6,8,10-tetrazabicyclo[5.4.0]undeca-8,10,12-trien-3-one]
- IC50 [1]: < 1000 nM
- IC50 [2]: < 30000 nM

SMILES: CN1C(=O)CCN(C2CCCC2)c2nc(Nc3cccc(OCCN4CCOCC4)c3)ncc21 [Example 180, 6-cyclopentyl-2-methyl-9-[[3-(2-morpholin-4-ylethoxy)phenyl]amino]-2,6,8,10-tetrazabicyclo[5.4.0]undeca-8,10,12-trien-3-one]
- IC50 [1]: < 100000 nM
- IC50 [2]: < 30000 nM

SMILES: CN1C(=O)CCN(C2CCCC2)c2nc(Nc3ccc(C(=O)NCCN4CCOCC4)cc3Cl)ncc21 [Example 184, 3-chloro-4-[(6-cyclopentyl-2-methyl-3-oxo-2,6,8,10-tetrazabicyclo[5.4.0]undeca-8,10,12-trien-9-yl)amino]-N-(2-morpholin-4-ylethyl)benzamide]
- IC50 [1]: < 1000 nM
- IC50 [2]: < 1000 nM

SMILES: CN1CCC(NC(=O)c2ccc(Nc3ncc4c(n3)N(C3CCCC3)CCC(=O)N4C)c(Cl)c2)CC1 [Example 185, 3-chloro-4-[(6-cyclopentyl-2-methyl-3-oxo-2,6,8,10-tetrazabicyclo[5.4.0]undeca-8,10,12-trien-9-yl)amino]-N-(1-methyl-4-piperidyl)benzamide]
- IC50 [1]: < 300 nM
- IC50 [2]: < 300 nM

SMILES: CN1CCC(NC(=O)c2ccc(Nc3ncc4c(n3)N(C3CCCC3)CCC(=O)N4C)c(O)c2)CC1 [Example 186, 4-[(6-cyclopentyl-2-methyl-3-oxo-2,6,8,10-tetrazabicyclo[5.4.0]undeca-8,10,12-trien-9-yl)amino]-3-hydroxy-N-(1-methyl-4-piperidyl)benzamide]
- IC50 [1]: < 300 nM
- IC50 [2]: < 30000 nM

SMILES: CN1CCC(NC(=O)c2c(F)cc(Nc3ncc4c(n3)N(C3CCCC3)CCC(=O)N4C)cc2F)CC1 [Example 187, 4-[(6-cyclopentyl-2-methyl-3-oxo-2,6,8,10-tetrazabicyclo[5.4.0]undeca-8,10,12-trien-9-yl)amino]-2,6-difluoro-N-(1-methyl-4-piperidyl)benzamide]
- IC50 [1]: < 100000 nM
- IC50 [2]: < 30000 nM

SMILES: CN1CCC(NC(=O)c2ccc(Nc3ncc4c(n3)N(C3CCCC3)CCC(=O)N4C)cc2F)CC1 [Example 189, 4-[(6-cyclopentyl-2-methyl-3-oxo-2,6,8,10-tetrazabicyclo[5.4.0]undeca-8,10,12-trien-9-yl)amino]-2-fluoro-N-(1-methyl-4-piperidyl)benzamide]
- IC50 [1]: < 300 nM
- IC50 [2]: < 300 nM

SMILES: CN1C(=O)CCN(C2CCCC2)c2nc(Nc3ccc(C(=O)NCCN4CCOCC4)cc3)ncc21 [Example 191, 4-[(6-cyclopentyl-2-methyl-3-oxo-2,6,8,10-tetrazabicyclo[5.4.0]undeca-8,10,12-trien-9-yl)amino]-N-(2-morpholin-4-ylethyl)benzamide]
- IC50 [1]: < 1000 nM
- IC50 [2]: < 1000 nM

SMILES: Cc1cc(C(=O)NC2CCN(C)CC2)ccc1Nc1ncc2c(n1)N(C1CCCC1)CCC(=O)N2C [Example 193, 4-[(6-cyclopentyl-2-methyl-3-oxo-2,6,8,10-tetrazabicyclo[5.4.0]undeca-8,10,12-trien-9-yl)amino]-3-methyl-N-(1-methyl-4-piperidyl)benzamide]
- IC50 [1]: < 300 nM
- IC50 [2]: < 300 nM

SMILES: CN1CCC(NC(=O)c2ccc(Nc3ncc4c(n3)N(C3CCCC3)CCC(=O)N4C)c(F)c2)CC1 [Example 194, 4-[(6-cyclopentyl-2-methyl-3-oxo-2,6,8,10-tetrazabicyclo[5.4.0]undeca-8,10,12-trien-9-yl)amino]-3-fluoro-N-(1-methyl-4-piperidyl)benzamide]
- IC50 [1]: < 300 nM
- IC50 [2]: < 300 nM

SMILES: COCCOc1cc(C(=O)NC2CCN(C)CC2)ccc1Nc1ncc2c(n1)N(C1CCCC1)CCC(=O)N2C [Example 195, 4-[(6-cyclopentyl-2-methyl-3-oxo-2,6,8,10-tetrazabicyclo[5.4.0]undeca-8,10,12-trien-9-yl)amino]-3-(2-methoxyethoxy)-N-(1-methyl-4-piperidyl)benzamide]
- IC50 [1]: < 1000 nM
- IC50 [2]: < 30000 nM

SMILES: CC(C)Oc1cc(C(=O)NC2CCN(C)CC2)ccc1Nc1ncc2c(n1)N(C1CCCC1)CCC(=O)N2C [Example 197, 4-[(6-cyclopentyl-2-methyl-3-oxo-2,6,8,10-tetrazabicyclo[5.4.0]undeca-8,10,12-trien-9-yl)amino]-N-(1-methyl-4-piperidyl)-3-propan-2-yloxy-benzamide]
- IC50 [1]: < 1000 nM
- IC50 [2]: < 1000 nM

SMILES: CN1CCC(NC(=O)c2ccc(Nc3ncc4c(n3)N(C3CCCC3)CCC(=O)N4C)c(OC(F)(F)F)c2)CC1 [Example 199, 4-[(6-cyclopentyl-2-methyl-3-oxo-2,6,8,10-tetrazabicyclo[5.4.0]undeca-8,10,12-trien-9-yl)amino]-N-(1-methyl-4-piperidyl)-3-(trifluoromethoxy)benzamide]
- IC50 [1]: < 100000 nM
- IC50 [2]: < 300 nM

SMILES: CCOc1cc(C(=O)NC2CCN(C)CC2)ccc1Nc1ncc2c(n1)N(C1CCCC1)CCC(=O)N2C [Example 200, 4-[(6-cyclopentyl-2-methyl-3-oxo-2,6,8,10-tetrazabicyclo[5.4.0]undeca-8,10,12-trien-9-yl)amino]-3-ethoxy-N-(1-methyl-4-piperidyl)benzamide]
- IC50 [1]: < 1000 nM
- IC50 [2]: < 300 nM

SMILES: CC(C)N1CCC(=O)N(C)c2cnc(Nc3ccc(C(=O)NC4CCN(C)CC4)cc3Cl)nc21 [Example 203, 3-chloro-4-[(2-methyl-3-oxo-6-propan-2-yl-2,6,8,10-tetrazabicyclo[5.4.0]undeca-7,9,11-trien-9-yl)amino]-N-(1-methyl-4-piperidyl)benzamide]
- IC50 [1]: < 300 nM
- IC50 [2]: < 300 nM

SMILES: COc1cc(C(=O)NCCN2CCCCC2)ccc1Nc1ncc2c(n1)N(C(C)C)CCC(=O)N2C [Example 205, 3-methoxy-4-[(2-methyl-3-oxo-6-propan-2-yl-2,6,8,10-tetrazabicyclo[5.4.0]undeca-7,9,11-trien-9-yl)amino]-N-[2-(1-piperidyl)ethyl]benzamide]
- IC50 [1]: < 100000 nM
- IC50 [2]: < 300 nM

SMILES: COc1cc(C(=O)NC2CN3CCC2CC3)ccc1Nc1ncc2c(n1)N(C(C)C)CCC(=O)N2C (stereo not drawn) [Example 206, N-(1-azabicyclo[2.2.2]oct-8-yl)-3-methoxy-4-[(2-methyl-3-oxo-6-propan-2-yl-2,6,8,10-tetrazabicyclo[5.4.0]undeca-7,9,11-trien-9-yl)amino]benzamide]
- IC50 [1]: < 300 nM
- IC50 [2]: < 300 nM

SMILES: COc1cc(C(=O)NCCN(C)C)ccc1Nc1ncc2c(n1)N(C(C)C)CCC(=O)N2C [Example 207, N-(2-dimethylaminoethyl)-3-methoxy-4-[(2-methyl-3-oxo-6-propan-2-yl-2,6,8,10-tetrazabicyclo[5.4.0]undeca-7,9,11-trien-9-yl)amino]benzamide]
- IC50 [1]: < 300 nM
- IC50 [2]: < 300 nM

SMILES: COc1cc(C(=O)NCC(C)(C)CN(C)C)ccc1Nc1ncc2c(n1)N(C(C)C)CCC(=O)N2C [Example 208, N-(3-dimethylamino-2,2-dimethyl-propyl)-3-methoxy-4-[(2-methyl-3-oxo-6-propan-2-yl-2,6,8,10-tetrazabicyclo[5.4.0]undeca-7,9,11-trien-9-yl)amino]benzamide]
- IC50 [1]: < 300 nM
- IC50 [2]: < 300 nM

SMILES: COc1cc(C(=O)NCCCCN2CCCC2)ccc1Nc1ncc2c(n1)N(C(C)C)CCC(=O)N2C [Example 209, 3-methoxy-4-[(2-methyl-3-oxo-6-propan-2-yl-2,6,8,10-tetrazabicyclo[5.4.0]undeca-7,9,11-trien-9-yl)amino]-N-(4-pyrrolidin-1-ylbutyl)benzamide]
- IC50 [1]: < 300 nM
- IC50 [2]: < 300 nM

SMILES: CCN1CCC(=O)N(C)c2cnc(Nc3ccc(C(=O)NC4CCN(C)CC4)cc3OC)nc21 [Example 210, 4-[(6-ethyl-2-methyl-3-oxo-2,6,8,10-tetrazabicyclo[5.4.0]undeca-7,9,11-trien-9-yl)amino]-3-methoxy-N-(1-methyl-4-piperidyl)benzamide]
- IC50 [1]: < 300 nM
- IC50 [2]: < 300 nM

SMILES: COc1cc(C(=O)NC2CCN(C)CC2)ccc1Nc1ncc2c(n1)N(CC1CC1)CCC(=O)N2C [Example 213, 4-[[6-(cyclopropylmethyl)-2-methyl-3-oxo-2,6,8,10-tetrazabicyclo[5.4.0]undeca-8,10,12-trien-9-yl]amino]-3-methoxy-N-(1-methyl-4-piperidyl)benzamide]
- IC50 [1]: < 300 nM
- IC50 [2]: < 300 nM

SMILES: COc1cc(C(=O)NC2CCN(C)CC2)ccc1Nc1ncc2c(n1)N(Cc1ccccc1)CCC(=O)N2C [Example 215, 4-[(6-benzyl-2-methyl-3-oxo-2,6,8,10-tetrazabicyclo[5.4.0]undeca-8,10,12-trien-9-yl)amino]-3-methoxy-N-(1-methyl-4-piperidyl)benzamide]
- IC50 [1]: < 1000 nM
- IC50 [2]: < 30000 nM

SMILES: CC(C)N1CCC(=O)N(C)c2cnc(Nc3ccc(C(=O)NCCN4CCOCC4)cc3)nc21 [Example 218, 4-[(2-methyl-3-oxo-6-propan-2-yl-2,6,8,10-tetrazabicyclo[5.4.0]undeca-7,9,11-trien-9-yl)amino]-N-(2-morpholin-4-ylethyl)benzamide]
- IC50 [1]: < 300 nM
- IC50 [2]: < 30000 nM
